Results published in patent US20240360142A1, “Multitargeting Agents For The Potential Treatment of Dementia With Lewy Bodies, Parkinson's Disease, and Alzheimer Disease With Lewy Bodies” (Duquesne University of The Holy Spirit, priority 2023, published 2024).
≈ marks a conversion by molar mass, not a printed value. Where “and” joins values, the source holds several entries; their conditions need not be identical. Identical values can stand only once. Entries after “also recorded” stand apart in the source; their conditions may differ. Like-named read-outs stand apart in the source and are kept apart here.

Tests used:
ABL1 = ABL1 (Homo sapiens, UniProt P00519); test: Kinase inhibition, ABL1; type: biochemical
Chain of ABL1 (P00519 whole entry): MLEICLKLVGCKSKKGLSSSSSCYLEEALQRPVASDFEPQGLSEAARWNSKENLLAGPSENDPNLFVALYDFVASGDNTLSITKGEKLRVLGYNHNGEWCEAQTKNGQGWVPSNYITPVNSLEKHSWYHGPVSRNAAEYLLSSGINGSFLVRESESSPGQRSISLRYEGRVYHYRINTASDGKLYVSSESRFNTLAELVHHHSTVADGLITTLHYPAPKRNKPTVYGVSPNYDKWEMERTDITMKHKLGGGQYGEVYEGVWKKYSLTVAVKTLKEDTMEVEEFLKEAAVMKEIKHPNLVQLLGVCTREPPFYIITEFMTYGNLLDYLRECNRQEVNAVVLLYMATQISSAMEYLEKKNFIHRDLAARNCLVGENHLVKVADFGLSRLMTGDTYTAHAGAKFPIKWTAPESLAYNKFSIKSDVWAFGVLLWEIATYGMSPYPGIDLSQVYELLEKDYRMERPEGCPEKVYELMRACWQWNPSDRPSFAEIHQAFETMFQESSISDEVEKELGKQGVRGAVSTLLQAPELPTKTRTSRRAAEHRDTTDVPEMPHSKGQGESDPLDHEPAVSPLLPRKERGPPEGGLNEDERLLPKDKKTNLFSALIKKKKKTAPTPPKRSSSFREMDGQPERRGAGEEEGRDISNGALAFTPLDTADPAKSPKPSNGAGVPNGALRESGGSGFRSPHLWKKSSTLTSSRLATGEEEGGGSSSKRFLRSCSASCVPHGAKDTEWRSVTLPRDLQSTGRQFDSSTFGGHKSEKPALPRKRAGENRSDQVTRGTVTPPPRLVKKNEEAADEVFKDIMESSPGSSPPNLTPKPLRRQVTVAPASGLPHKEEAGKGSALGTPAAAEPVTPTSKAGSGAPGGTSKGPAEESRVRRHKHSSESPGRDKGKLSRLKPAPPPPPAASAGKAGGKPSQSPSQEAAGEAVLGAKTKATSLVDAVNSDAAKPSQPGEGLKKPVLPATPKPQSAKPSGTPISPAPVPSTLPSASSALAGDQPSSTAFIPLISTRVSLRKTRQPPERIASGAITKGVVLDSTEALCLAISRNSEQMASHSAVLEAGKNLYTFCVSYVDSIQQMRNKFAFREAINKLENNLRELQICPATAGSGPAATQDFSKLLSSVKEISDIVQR
Text: (§1) Total inhibition of these kinases would be detrimental to neuronal viability.

CSNK1A1 (CK1 alpha 1) = CSNK1A1 (CK1 alpha 1) (Homo sapiens, UniProt P48729); test: Kinase inhibition, CSNK1A1; type: biochemical
Chain of CSNK1A1 (CK1 alpha 1) (P48729 whole entry): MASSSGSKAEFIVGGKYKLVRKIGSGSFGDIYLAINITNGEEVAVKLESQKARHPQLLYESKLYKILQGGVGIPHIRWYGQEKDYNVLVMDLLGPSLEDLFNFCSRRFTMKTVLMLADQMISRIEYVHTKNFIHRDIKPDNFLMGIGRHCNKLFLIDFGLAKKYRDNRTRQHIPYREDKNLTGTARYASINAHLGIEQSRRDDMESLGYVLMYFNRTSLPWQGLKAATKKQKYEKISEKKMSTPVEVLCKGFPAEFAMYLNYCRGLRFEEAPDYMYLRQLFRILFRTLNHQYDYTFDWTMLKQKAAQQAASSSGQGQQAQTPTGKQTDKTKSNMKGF
Text: as §1

CSNK2A2 (CK2 alpha 2) = CSNK2A2 (CK2 alpha 2) (Homo sapiens, UniProt P19784); test: Kinase inhibition, CSNK2A2; type: biochemical; conditions: ATP Km app 46 μM
Chain of CSNK2A2 (CK2 alpha 2) (P19784 whole entry): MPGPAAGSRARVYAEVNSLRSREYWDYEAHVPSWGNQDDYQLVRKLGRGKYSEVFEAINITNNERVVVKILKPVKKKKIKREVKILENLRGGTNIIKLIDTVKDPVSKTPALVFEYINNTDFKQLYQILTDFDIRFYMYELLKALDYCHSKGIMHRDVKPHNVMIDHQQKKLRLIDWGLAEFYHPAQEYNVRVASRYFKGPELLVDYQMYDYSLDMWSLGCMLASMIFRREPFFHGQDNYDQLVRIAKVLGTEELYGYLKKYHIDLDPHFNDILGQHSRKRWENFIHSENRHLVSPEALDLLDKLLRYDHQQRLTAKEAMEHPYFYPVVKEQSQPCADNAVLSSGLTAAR
Text: as §1

DYRK1A = DYRK1A (Homo sapiens, UniProt Q13627); test: Kinase inhibition, DYRK1A; type: biochemical; conditions: ATP Km app 99.7 μM
Text: as §1

FYN = FYN (Homo sapiens, UniProt P06241); test: Kinase inhibition, FYN; type: biochemical
Chain of FYN (P06241 whole entry): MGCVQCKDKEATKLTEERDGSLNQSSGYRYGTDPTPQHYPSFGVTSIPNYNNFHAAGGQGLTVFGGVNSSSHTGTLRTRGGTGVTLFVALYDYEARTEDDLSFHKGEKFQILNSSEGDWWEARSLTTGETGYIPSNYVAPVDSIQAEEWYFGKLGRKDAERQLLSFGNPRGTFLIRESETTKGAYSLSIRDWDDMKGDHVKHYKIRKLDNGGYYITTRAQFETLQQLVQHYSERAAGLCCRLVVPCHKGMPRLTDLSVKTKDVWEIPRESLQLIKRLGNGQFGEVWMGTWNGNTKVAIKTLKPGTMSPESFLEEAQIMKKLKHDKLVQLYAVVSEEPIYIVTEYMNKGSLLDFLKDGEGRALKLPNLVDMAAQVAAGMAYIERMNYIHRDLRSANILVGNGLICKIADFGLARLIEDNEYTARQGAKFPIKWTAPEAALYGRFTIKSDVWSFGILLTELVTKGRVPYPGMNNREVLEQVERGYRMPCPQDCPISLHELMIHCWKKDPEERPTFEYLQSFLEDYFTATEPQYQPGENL
Text: as §1

GRK5 = GRK5 (Homo sapiens, UniProt P34947); test: Kinase inhibition, GRK5; type: biochemical; conditions: ATP Km app 3 μM
Text: as §1

GRK6 = GRK6 (Homo sapiens, UniProt P43250); test: Kinase inhibition, GRK6; type: biochemical; conditions: ATP Km app 11.7 μM
Chain of GRK6 (P43250 whole entry): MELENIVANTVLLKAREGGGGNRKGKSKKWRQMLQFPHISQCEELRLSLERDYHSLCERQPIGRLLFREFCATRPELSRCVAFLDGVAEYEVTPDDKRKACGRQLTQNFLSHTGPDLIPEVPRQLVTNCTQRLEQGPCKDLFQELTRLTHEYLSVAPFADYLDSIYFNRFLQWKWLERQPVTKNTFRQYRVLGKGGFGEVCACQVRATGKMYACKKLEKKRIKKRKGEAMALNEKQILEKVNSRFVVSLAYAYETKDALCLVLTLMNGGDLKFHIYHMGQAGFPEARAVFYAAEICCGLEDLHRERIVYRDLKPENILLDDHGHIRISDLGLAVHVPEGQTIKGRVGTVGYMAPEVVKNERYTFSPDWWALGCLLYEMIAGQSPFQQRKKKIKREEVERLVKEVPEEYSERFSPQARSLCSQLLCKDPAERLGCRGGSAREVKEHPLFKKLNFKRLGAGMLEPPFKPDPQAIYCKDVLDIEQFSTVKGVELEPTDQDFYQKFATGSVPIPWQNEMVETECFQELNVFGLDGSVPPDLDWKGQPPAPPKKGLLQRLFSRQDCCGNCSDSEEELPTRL
Text: as §1

GSK3β = GSK3β (Homo sapiens, UniProt P49841); test: Kinase inhibition, GSK3β; type: biochemical
Chain of GSK3β (P49841 whole entry): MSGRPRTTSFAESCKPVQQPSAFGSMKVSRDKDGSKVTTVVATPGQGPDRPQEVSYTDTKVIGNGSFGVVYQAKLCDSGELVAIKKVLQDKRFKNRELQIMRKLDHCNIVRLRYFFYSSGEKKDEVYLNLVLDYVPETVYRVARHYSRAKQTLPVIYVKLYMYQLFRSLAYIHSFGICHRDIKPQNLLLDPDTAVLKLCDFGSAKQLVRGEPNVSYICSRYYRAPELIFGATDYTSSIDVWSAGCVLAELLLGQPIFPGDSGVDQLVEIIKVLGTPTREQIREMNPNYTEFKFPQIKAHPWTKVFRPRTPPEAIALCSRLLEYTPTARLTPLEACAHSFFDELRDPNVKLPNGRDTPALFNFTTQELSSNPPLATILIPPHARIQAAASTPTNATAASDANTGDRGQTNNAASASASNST
Text: as §1

LARK2 = LARK2 (Homo sapiens, UniProt Q5S007); test: Kinase inhibition, LARK2; type: biochemical; further: ATP Km app 70 µM
Text: as §1

PLK2 = PLK2 (Homo sapiens, UniProt Q9NYY3); test: Kinase inhibition, PLK2; type: biochemical; conditions: ATP Km app 29.6 μM
Chain of PLK2 (Q9NYY3 whole entry): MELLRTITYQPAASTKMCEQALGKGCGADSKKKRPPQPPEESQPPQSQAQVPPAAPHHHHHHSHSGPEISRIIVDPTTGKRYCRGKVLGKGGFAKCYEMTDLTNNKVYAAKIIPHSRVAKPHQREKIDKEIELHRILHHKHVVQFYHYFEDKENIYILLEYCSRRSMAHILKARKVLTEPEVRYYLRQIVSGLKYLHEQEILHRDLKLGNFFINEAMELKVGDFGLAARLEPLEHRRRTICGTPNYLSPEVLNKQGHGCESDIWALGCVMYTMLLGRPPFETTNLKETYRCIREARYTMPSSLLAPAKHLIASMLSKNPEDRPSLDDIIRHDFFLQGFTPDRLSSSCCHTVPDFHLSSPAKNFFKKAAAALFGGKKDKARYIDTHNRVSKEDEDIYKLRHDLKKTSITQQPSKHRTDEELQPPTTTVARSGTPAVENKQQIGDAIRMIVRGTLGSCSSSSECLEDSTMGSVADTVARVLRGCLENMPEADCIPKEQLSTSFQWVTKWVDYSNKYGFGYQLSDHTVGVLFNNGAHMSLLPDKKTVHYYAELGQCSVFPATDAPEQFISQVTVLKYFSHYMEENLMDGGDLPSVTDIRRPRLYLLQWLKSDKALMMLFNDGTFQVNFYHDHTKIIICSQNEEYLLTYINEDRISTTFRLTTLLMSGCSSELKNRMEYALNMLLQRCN
Text: as §1

Solubility = type: physicochemical; conditions: simulated gastric fluid; pH 2.0
[1] = Protein Binding, Human Plasma; type: in vitro ADME; conditions: read-out: Protein Binding % Bound (converted)
[2] = Protein Binding, Mouse Plasma; type: in vitro ADME; conditions: read-out: Protein Binding % Bound (converted)
[3] = Brain Tissue Binding, Mouse; type: in vitro ADME; conditions: read-out: Brain Tissue Binding % Bound (converted)
[4] = Metabolic Stability, Human; type: in vitro ADME; conditions: for half-life: read-out: Metabolic Stability T1/2
[5] = Metabolic Stability, Mouse; type: in vitro ADME; conditions: for half-life: read-out: Metabolic Stability T1/2
Permeability, MDC-MDR1 = type: in vitro ADME; conditions: MDCK-MDR1
in vivo = test: in vivo; set-up: species or system male CD-1 mice; conditions: for clinical symptoms during pharmacokinetic work: mouse
Protocol: Briefly, each compound was administered through intravenous and oral routes, and plasma samplings were collected from 2 to 24 hours post-injection for analyses by high-performance liquid chromatography and mass spectrometry (Prominence (Degasser DGU-20A5R(C), Serial NO. L20705619752 IX; Liquid Chromatograph LC-30AD Serial NO. L20555611120 AE and L20555611116 AE; Communications Bus Module CBM-20A, Serial NO. L20235635001 CD, Auto SIL-20AC HT, Serial No. L20355305356 AE; Rack changer II, Serial No. L20585300757 SS; AB Sciex Triple Quan 5500 LC/MS/MS instrument (Serial NO. EF20711807)). A HALO 90A, C18 2.7 μm 2.1×50 mm USKL004340 column was used and the mobile phase was 5 or 95% acetonitrile in water with 0.1% formic acid (see Supplemental Material).

[6] = target: T1, tubulin purified from porcine brain (Sus scrofa, UniProt P02550+P02554); conditions: cited from earlier work
T1 construct: in vitro assembly of tubulin purified from porcine brain; from tissue; host or cells: porcine brain
T1 sequence (P02550 whole entry): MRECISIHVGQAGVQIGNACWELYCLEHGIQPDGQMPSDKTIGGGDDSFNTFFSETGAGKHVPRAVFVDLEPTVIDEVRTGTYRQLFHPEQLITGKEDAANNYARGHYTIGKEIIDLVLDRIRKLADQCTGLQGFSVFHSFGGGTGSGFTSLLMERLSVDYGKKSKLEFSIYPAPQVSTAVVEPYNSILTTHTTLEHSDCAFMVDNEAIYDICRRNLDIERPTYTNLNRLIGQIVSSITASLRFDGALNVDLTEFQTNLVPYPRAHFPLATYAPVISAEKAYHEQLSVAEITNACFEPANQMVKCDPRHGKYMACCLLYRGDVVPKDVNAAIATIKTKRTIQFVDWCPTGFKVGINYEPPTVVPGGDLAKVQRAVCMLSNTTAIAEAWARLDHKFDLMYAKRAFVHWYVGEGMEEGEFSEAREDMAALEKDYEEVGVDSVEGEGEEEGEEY
T1 sequence (P02554 whole entry): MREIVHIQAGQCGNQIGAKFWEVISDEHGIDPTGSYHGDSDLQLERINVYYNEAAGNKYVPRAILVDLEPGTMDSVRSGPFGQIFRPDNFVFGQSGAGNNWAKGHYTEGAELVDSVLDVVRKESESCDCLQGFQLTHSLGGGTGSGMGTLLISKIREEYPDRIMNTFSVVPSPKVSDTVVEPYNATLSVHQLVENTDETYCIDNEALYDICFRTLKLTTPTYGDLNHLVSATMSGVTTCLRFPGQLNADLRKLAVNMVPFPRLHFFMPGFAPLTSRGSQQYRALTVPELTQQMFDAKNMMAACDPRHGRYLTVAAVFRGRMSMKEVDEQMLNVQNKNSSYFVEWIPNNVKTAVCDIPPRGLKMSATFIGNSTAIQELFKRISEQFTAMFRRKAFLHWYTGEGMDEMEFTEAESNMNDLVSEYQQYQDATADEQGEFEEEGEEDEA

[7] = tested on: primary hippocampal cultures; test: Viability / toxicity in primary hippocampal cultures; type: cell-based
Text: Thresholds were kept uniform across individual experiments.

[8] = tested on: α-tubulin (detyrosinated, tyrosinated, acetylated); test: Post-translational markers of microtubule stability in primary hippocampal cultures (immunoblotting); type: cell-based, rat; conditions: 5 nM nocodazole, in the presence of fibrils
[9] = tested on: βIII-tubulin+ structures in primary hippocampal neurons; test: Nocodazole shock treatment followed by cold methanol fixation, βIII-tubulin staining; type: cell-based, rat; conditions: AG161-47 8 μM; nocodazole 50 nM and 5 μM
Protocol: For cold methanol fixation, primary hippocampal cultures plated on glass slides were exposed to ice-cold methanol (−20° C.) for 15 minutes on DIV 4. […] After immunostaining, coverslips were applied using FluoroMount-G (0100-01, SouthernBiotech).
The microtubule destabilizer/depolymerizer and kinase inhibitor nocodazole blocks AG161-47 activity: We qualitatively compared AG161-47 with the established microtubule destabilizer/depolymerizer nocodazole (Baas & Black, 1990; Baas et al., 2016; Bates & Eastman, 2017; Kapellos et al., 2016; Koenigsknecht & Landreth, 2004; Kuhn, 1998; Mandrekar et al., 2009; Nakayama et al., 2012; Park et al., 2012), using a nocodazole shock treatment followed by cold methanol fixation in primary hippocampal cultures, as previously described (Ferreira et al., 2018; Warren et al., 2020). Primary hippocampal cultures were treated with vehicle or AG161-47 at 8 μM or nocodazole at 50 nM and 5 μM.

[10] = tested on: male CD-1 mice infused with preformed α-synuclein fibrils; test: In vivo model of limbic-centered Lewy body disease (fibril infusion in OB/AON, daily tablets for six weeks); set-up: species or system mouse
[11] = tested on: microtubules in HeLa cells; conditions: cited from earlier work

Work on Cc1ccc(N(C)c2nc(N)nc3[nH]c4cccc(Cl)c4c23)cc1 [AGN5] yielded an IC50 (ABL1; ATP Km app 12 μM) of 26.1 nM, an IC50 (CSNK1A1 (CK1 alpha 1)) of 498 nM and an IC50 (CSNK2A2 (CK2 alpha 2)) greater than 1110 nM. The IC50 (DYRK1A) was 249 nM, the IC50 (FYN; ATP Km app 85 μM) was 169 nM and the IC50 (GRK5) was greater than 370 nM. It also gave an IC50 (GRK6) of 64.3 nM, an IC50 (GSK3β) of 3.12 nM and an IC50 (LARK2) of 20 nM. It also gave an IC50 (PLK2) of 16.7 nM, a solubility (Solubility) of 1.75 µM (≈ 0.591 µg/mL) and a fraction unbound [1] of 0.0022. It also gave a fraction unbound [2] of less than 0.0002, a fraction unbound [3] of 0.0004 and a CLint scaled [4] of 44.7 mL/min/kg. For the same compound, the half-life [4] was 38.9 min, the CLint scaled [5] was 602 mL/min/kg and the half-life [5] was 10.1 min. For the same compound, the Papp A→B (Permeability, MDC-MDR1) was 1.74 ×10⁻⁶ cm/s, the Papp B→A (Permeability, MDC-MDR1) was 2.98 ×10⁻⁶ cm/s and the Kp (in vivo; male, CD-1, mouse) was 5.99. It also gave a Kp uu at 2 h (in vivo; male, CD-1, mouse) of 6, a C0 (in vivo; male, CD-1, mouse, iv, 1 mg/kg) of 811 ng/mL and a CIobs (in vivo; male, CD-1, mouse, iv, 1 mg/kg) of 49.5 mL/min/kg. For the same compound, the Vss_obs (in vivo; male, CD-1, mouse, iv, 1 mg/kg) was 3.24 L/kg, the half-life (in vivo; male, CD-1, mouse, iv, 1 mg/kg) was 93 min and the AUC(0-t) (in vivo; male, CD-1, mouse, po, 1 mg/kg) was 19.2 ng·h/mL. The Cmax (in vivo; male, CD-1, mouse, po, 1 mg/kg) was 14.7 ng/mL and 44 nM, the F (in vivo; male, CD-1, mouse, po, 1 mg/kg) was 6.35% and the Tmax (in vivo; male, CD-1, mouse, po, 1 mg/kg) was 30 min. For the same compound, the half-life (in vivo; male, CD-1, mouse, po, 1 mg/kg) was 46.8 min, the “clinical symptoms during pharmacokinetic work” value (in vivo) was “no abnormal clinical symptoms were observed” and the “in vitro assembly of porcine brain tubulin” value [6] was “accelerate the temporal kinetics of porcine brain tubulin in vitro assembly”.

With epothilone the “toxicity to primary hippocampal cultures” value [7] was “toxic to primary hippocampal cultures at nanomolar concentrations; also recorded: also found to be toxic”.

With COC(=O)Nc1nc2ccc(C(=O)c3cccs3)cc2[nH]1 [nocodazole] the “number of viable Hoechst+ cells” value ([7]; fibrils, escalating AG161-47 up to 8 μM, nocodazole 1 and 5 nM, 10 days) was “no statistically significant changes”, the “toxicity to primary hippocampal cultures” value [7] was “also found to be toxic” and the “acetylated (stable) α-tubulin levels” value [8] was “raised the levels of acetylated (stable) α-tubulin”. For the same compound, the “appearance of βIII-tubulin+ structures after cold methanol fixation” value [9] was “neurotoxicity and severe beading of axonal microtubules”.

With COc1cc2ncnc(Nc3cccc(Cl)c3)c2cc1OC [Tyrphostin AG1478, reference compound] the IC50 (ABL1; representative value, ATP bin 10 μM, read-out: IC50 (nM) of Std inhibitor, ABL1) was 326 nM and the IC50 (FYN; representative value, ATP bin 75 μM, read-out: IC50 (nM) of Std inhibitor, FYN) was 5300 nM.

In the case of Brc1c(Br)c(Br)c2n[nH]nc2c1Br [TBB, reference compound], the IC50 (CSNK1A1 (CK1 alpha 1); representative value, ATP bin 5 μM, read-out: IC50 (nM) of Std inhibitor, CSNK1A1 (CK1 alpha 1)) is reported as 12600 nM.

For CN(c1ccccc1)c1nc(N)nc2[nH]c3cccc(Cl)c3c12 [AGN11], the IC50 (ABL1; ATP Km app 12 μM) was 7.96 nM, the IC50 (CSNK1A1 (CK1 alpha 1)) was 30.5 nM and the IC50 (CSNK2A2 (CK2 alpha 2)) was greater than 1110 nM. It also gave an IC50 (DYRK1A) of 8.15 nM, an IC50 (FYN; ATP Km app 85 μM) of 888 nM and an IC50 (GRK5) greater than 1110 nM. It also gave an IC50 (GRK6) of 614 nM, an IC50 (GSK3β) of 8.12 nM and an IC50 (LARK2) of 7.03 nM. For the same compound, the IC50 (PLK2) was greater than 370 nM, the solubility (Solubility) was 0.71 µM (≈ 0.23 µg/mL) and the fraction unbound [1] was 0.004. The fraction unbound [2] was 0.0022, the fraction unbound [3] was 0.0008 and the CLint scaled [4] was 45.6 mL/min/kg. The half-life [4] was 38.1 min, the CLint scaled [5] was 602 mL/min/kg and the half-life [5] was 10.1 min. For the same compound, the Papp A→B (Permeability, MDC-MDR1) was 4.97 ×10⁻⁶ cm/s, the Papp B→A (Permeability, MDC-MDR1) was 4.16 ×10⁻⁶ cm/s and the Kp (in vivo; male, CD-1, mouse) was 4.5. It also gave a Kp uu at 2 h (in vivo; male, CD-1, mouse) of 4.4, a C0 (in vivo; male, CD-1, mouse, iv, 1 mg/kg) of 529 ng/mL and a CIobs (in vivo; male, CD-1, mouse, iv, 1 mg/kg) of 120 mL/min/kg. It also gave a Vss_obs (in vivo; male, CD-1, mouse, iv, 1 mg/kg) of 2.41 L/kg, a half-life (in vivo; male, CD-1, mouse, iv, 1 mg/kg) of 19.4 min and an AUC(0-t) (in vivo; male, CD-1, mouse, po, 1 mg/kg) of 11 ng·h/mL. The F (in vivo; male, CD-1, mouse, po, 1 mg/kg) was 8.38%, the Tmax (in vivo; male, CD-1, mouse, po, 1 mg/kg) was 25 min and the half-life (in vivo; male, CD-1, mouse, po, 1 mg/kg) was 36 min. For the same compound, the “clinical symptoms during pharmacokinetic work” value (in vivo) was “no abnormal clinical symptoms were observed”, the “fragmented and condensed Hoechst+ nuclei” value ([7]; 8 μM, fibril-treated group) was “reduced fragmented and condensed Hoechst^+ nuclei” and the “impact on fragmented/condensed cell counts with nocodazole co-treatment” value ([7]; fibril groups, nocodazole 1 and 5 nM) was “prevented by both concentrations of nocodazole”. The “appearance of βIII-tubulin+ structures after cold methanol fixation” value [9] was “did not alter the appearance of βIII-tubulin^+ structures”, the “correlation between insoluble α-synuclein and locomotor speed” value ([10]; 5 mg/kg) was “uncoupled the inverse correlation between insoluble α-synuclein and locomotor speed” and the “hyperphosphorylation (pSer129) of insoluble α-synuclein, piriform cortex and amygdala” value ([10]; 5 mg/kg, six weeks, listed as AG161-47) was “modestly lowered; also recorded: reduced the hyperphosphorylation of insoluble α-synuclein”. The “effect on Lewy-related pathology” value ([10]; 10 mg/kg, six weeks) was “too high to exert beneficial effects”, the bodyweight ([10]; daily tablets 5 or 10 mg/kg, six weeks, compared to placebo) was “No loss of bodyweight” and the “acetylated, detyrosinated, or tyrosinated α-tubulin levels in whole-fraction OB/AON” value ([10]; immunoblotting, six weeks) was “virtually no net effect”. For the same compound, the α-synucleinopathic inclusion counts ([10]; piriform cortex sections, six weeks) was “does not affect α-synucleinopathic inclusion counts”, the “locomotor activity in an open arena” value ([10]; six weeks after fibril infusions) was “reduced locomotor activity” and the “other behavior measures (novel odor habituation, Y-maze, marble burying)” value ([10]; six weeks of daily tablets) was “no impact”. For the same compound, the “in vitro assembly of porcine brain tubulin” value [6] was “accelerated and amplified the net in vitro assembly of tubulin” and the “microtubule effects in HeLa cells” value [11] was “elicited both stabilization and relaxation of microtubules”.
